Laboratory results: US11814643B2, “Enhanced sleeping beauty transposons, kits and methods of transposition” (Max-Delbrück-Centrum für Molekulare Medizin in der …, priority 2016, dated 2023)

Key:
HeLa cells = experiment: Transposition assay of neo-marked mutated transposon constructs; type: cell-based
Source text: FIG. 4 Enhanced binding affinity at the inner DR improves Sleeping Beauty transposition. On the left, schematics of various neo-marked, mutated transposon constructs are depicted. On the right, the respective transpositional activities are shown in comparison to wild type transposon (construct 1), set as 100%. A. Composite DRs were created by changing either the PAI (black box) or the RED (grey box) recognition motifs into a high-affinity binding site (CAST-5) selected by the CASTing experiment (marked by stars at the PAI and stripped at the RED recognition motifs). B. The CAST-5 sequence (SEQ ID NO: 24 or 25) was used to replace only the PAI recognition motif, while the rest of the DR was wild type.
Altering the affinity of the binding sites might challenge the ordered assembly process occurring during transposition of a SB transposon. Thus, a series of transposon versions were constructed where 12DR and/or 14DR motifs were replaced by CASTing selected, high affinity binding sites (FIG. 4A), and the various constructs were subjected to transposition assays. […] Alternatively, the negative effect of CAST-5 on transposition could, at least partially, be accounted to its preferential selection for PAI binding, while compromising its RED function. Indeed, the CAST sequences are predicted to be sub-optimal for RED interaction, including the ability to distinguish between inner vs outer positions (FIG. 2). To distinguish between the two scenarios, we generated CAST-5/wt hybrids, where CAST-5 was replacing PAI only, otherwise kept the DRs wild type (wt). Again, we tested the impact of the hybrid motifs on transposition in various combinations. […]
HeLa cells were grown in DMEM (GIBCO BRL, Germany) supplemented with 10% Fecal Calf Serum Gold (FCS Gold) (PAA, Germany) and 1% antimycotic antibiotic (Invitrogen, Germany). […] After 3 weeks of selection, colonies were stained and counted as described in Ivics et al., Cell 1997. […]

SB transposition = experiment: Transposition assay with inhibition of cathepsin or HSP90; type: cell-based; settings: cathepsin inhibition; E64D 20 μM vs control
Description: In order to monitor transcriptional changes activated by the transposase, a genome-wide transcriptional study was performed (HeLa, Affymetrix). […] While HSPA2, a variant of the heat shock protein HSP70, is a member of the stress response, cathepsins are lysosomal proteases and have a vital role in mammalian cellular turnover. […] In addition, by mitigating the cellular stress response induction of the apoptotic signalling is moderated and cell viability improved.
FIG. 6 A. Effect of E64D (an inhibitor of cathepsins, cystein proteases and calpain) on SB transposition. Transposition assay, (20 μM, right side; control, left side). RNAi approach against cathepsin(s) is expected to yield a similar improvement. B. Differential expression of host genes in the presence oft the transposase (HeLa, Affymetrix). […] Cathepsins (CTs) degrade polypeptides and are distinguished by substrate specificities (CTSH, CTSF, CTS2).

Row | Compound | transpositional activity in comparison to wild type transposon (set as 100%) (HeLa cells; 12DRs replaced by CAST-5 motif) [%] | transpositional activity in comparison to wild type transposon (set as 100%) (HeLa cells; 14DRs replaced by CAST-5 motif) [%] | transpositional activity in comparison to wild type transposon (set as 100%) (HeLa cells; all the four DRs changed to CAST-5) [%] | effect on SB transposition (SB transposition)
1 | CAST-5: high-affinity SB transposase binding site selected by CASTing; 12DR SEQ ID NO: 24, 14DR SEQ ID NO: 25 (chain 1 GTGACGACCCCAAGTGTACATACACGCGCC; chain 2 GTGACGACCCCAAGTGTACATACACGCGCC; listed as DNA, chemistry not fully specified) | 65 | 3 | 2.2 | 
2 | CCOC(=O)[C@H]1O[C@@H]1C(=O)N[C@@H](CC(C)C)C(=O)NCCC(C)C [E64D] |  |  |  | improvement
